Results on one molecule are retold here after patent publication US20230123695A1, “GLYCAN COMPOSITIONS AND METHODS OF USE” (DSM Nutritional Products, LLC, priority 2018, published 2023).

Holding throughout (type): cell-based, human fecal cultures
In assay [1] the test system is Enterococcaceae/Enterococcus and/or Enterobacteriaceae/Escherichia/Shigella microbes. In words: Ex vivo fecal slurry assay, 16S rRNA sequencing (Example 18). As to conditions: 1% w/v fecal slurry from 12 subjects, glycan 0.5% w/v, 37° C., 18 hours, anaerobically; FIGS. 3 and 14. An excerpt:
(§1) An ex vivo assay was designed to determine if glycans can be used to modulate a complex community of microorganisms and if the glycans produced consistent effects across communities obtained from multiple (twelve) subjects. Fecal samples and slurries were handled in an anaerobic chamber (AS-580, Anaerobe Systems) featuring a palladium catalyst. Glycans ara100, gal100, glu60man40, glu100, glu50gal50, gal33man33ara33, man75gal25, glu33gal33man34, glu33gal33Ara33, man100, man52glu29gal19 and commercially available glycans lactulose (Alfa Aesar) and FOS (Nutraflora FOS; NOW Foods, Bloomingdale Ill.) were included in the study. The fecal sample donations obtained from 12 subjects were stored at −80° C. To prepare working stocks the fecal samples were transferred into the anaerobic chamber and allowed to thaw.
A microbial enzyme, found in Enterococcus, Clostridium, Corynebacterium, Campylobacter, and Escherichia, is known to convert sweetener to a compound that can be toxic, e.g., converts cyclamate to cyclohexylamine, which can be toxic. Decreasing the levels or activity of microbes expressing said microbial enzyme may decrease the generation of toxic compounds.

Assay [2] relates to Enterobacteriaceae/Escherichia/Shigella microbes. In words: Ex vivo fecal slurry assay, 16S rRNA sequencing (Example 17). As to conditions: 1% w/v fecal slurry from 12 subjects, glycan 0.5% w/v, 37° C., 18 hours, anaerobically; FIG. 14.
Text: as §1
Microbial beta-glucuronidase, found in bacteria that carry the uidA gene, e.g., Escherichia coli, is known to reactivate glucuronidated substrate, e.g., heterocyclic amines, (detoxified by hepatic glucuronidation), by removing the conjugate, generating a toxic compound. Decreasing the levels or activity of microbial beta-glucuronidase expressing microbes may decrease the generation of toxic, e.g., carcinogenic, compounds, which may have a preventative effect on cancer.

Assay [3] deals with Firmicutes, Proteobacteria, and/or Actinobacteria. In words: Ex vivo fecal slurry assay, 16S rRNA sequencing (Example 11). As to conditions: 1% w/v fecal slurry from 12 subjects, glycan 0.5% w/v, 37° C., 18 hours, anaerobically; FIGS. 4-6.
Text: as §1
Microbial beta-glucuronidase, found in Proteobacteria, Firmicutes, and Actinobacteria, is known to modify SN-38 glucuronide, which is used to treat cancer (e.g., colorectal cancer) and has the side-effect of diarrhea, by removing a sugar moiety, creating a compound that is toxic to intestinal epithelial cells. Decreasing the levels or activity of microbial beta-glucuronidase expressing microbes may increase the effectiveness of SN-38 glucuronidine treatment and/or decrease/prevent side effects.

Assay [4] has as its system Enterococcaceae/Enterococcus and/or Bifidobacteriaceae/Bifidobacterium. In words: Ex vivo fecal slurry assay, 16S rRNA sequencing (Example 15). The following applies: 1% w/v fecal slurry from 12 subjects, glycan 0.5% w/v, 37° C., 18 hours, anaerobically; FIGS. 3 and 10.
Text: as §1
A microbial enzyme, found in Enterococcus faecium, Lactobacillus mucosae, Bifidobacterium sp., and Eggerthella sp., is known to metabolize daidzin into equol, which binds estrogen receptor-beta and may be associated with lower risk/incidence of breast cancer. Increasing the levels or activity of microbes expressing said microbial enzyme may increase the have a preventative effect on cancer, e.g., breast cancer, or treat cancer, e.g., breast cancer.

For assay [5], the system named is Actinobacteria and/or Coriobacteriaceae/Gordonibacter. In words: Ex vivo fecal slurry assay, 16S rRNA sequencing (Example 13). The following applies: 1% w/v fecal slurry from 12 subjects, glycan 0.5% w/v, 37° C., 18 hours, anaerobically; FIGS. 6 and 8.
Text: as §1
A microbial enzyme found in Actinobacteria and Coriobacteriaceae/Gordonibacter is known to hydrolyze ellagitannin to ellagic acid.

The test system of assay [6] is Ruminococcaceae/Ruminococcus microbes. In words: Ex vivo fecal slurry assay, 16S rRNA sequencing (Example 21). The following applies: 1% w/v fecal slurry from 12 subjects, glycan 0.5% w/v, 37° C., 18 hours, anaerobically; FIG. 17.
Text: as §1
A microbial enzyme found in Bacteroidetes (e.g., Bacteroidales) and mucolytic bacteria such as Ruminococcus gnavus, is known to cause metabolic and inflammatory response to emulsifying agents. Decreasing the levels or activity of microbes expressing said microbial enzyme may increase the effectiveness of emulsifying agents, e.g, carboxymethylcellulose or polysorbate-80, e.g., to decrease risk/incidence of metabolic syndrome and/or inflammation.

The test system of assay [7] is Enterobacteriales/Enterobacteriaceae microbes. In words: Ex vivo fecal slurry assay, 16S rRNA sequencing (Example 19). As to conditions: 1% w/v fecal slurry from 12 subjects, glycan 0.5% w/v, 37° C., 18 hours, anaerobically; FIG. 15.
Text: as §1
Microbial phosphorylase, e.g., thymidine phosphorylase or uridine phosphorylase, found in Enterobacteria, e.g., K. pneumoniae, is known to deglycosylate sorivudine, inactivating it. Sorivudine is used to treat viral infection (e.g. herpes simplex virus 1 and varicella-zoster virus). Decreasing the levels or activity of microbes expressing said microbial phosphorylase may decrease the inactivation of sorivudine and increase the effectiveness of sorivudine treatment against viral infections.

For `OC[C@H]1O[C@@H](O[C@@H]2[C@@H](CO)OC(O)(CO)[C@H]2O)[C@H](O)[C@@H](O)[C@H]1O` (mixture of isomers) [lactulose], the “levels of Enterococcaceae/Enterococcus and/or Enterobacteriaceae/Escherichia/Shigella microbes” value in assay [1] is recorded as “appeared to decrease”. Moreover, in assay [2], the “levels of Enterobacteriaceae/Escherichia/Shigella microbes” value is listed as “appeared to decrease”. In addition, the “levels of Firmicutes, Proteobacteria, and/or Actinobacteria” value in assay [3] is recorded as “appeared to decrease”. Moreover, the “levels of Enterococcaceae/Enterococcus and/or Bifidobacteriaceae/Bifidobacterium” value in assay [4] is recorded as “appeared to increase”. Also, the “levels of Actinobacteria and/or Coriobacteriaceae/Gordonibacter” value in assay [5] was “appeared to decrease”. Besides, the “levels of Ruminococcaceae/Ruminococcus microbes” value in assay [6] is recorded as “appeared to decrease”. Further, the “levels of Enterobacteriales/Enterobacteriaceae microbes” value in assay [7] is listed as “appeared to decrease”.
